Where “and” joins values, the source holds several entries; their conditions need not be identical. Equal values may be shown once.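 96-well plates; 48 h exposure; 5 concentrations. Endpoints by linear interpolation between flanking doses. Not reached: highest tested concentration assigned. GI50 marks 50% less growth. TGI denotes the concentration required for complete inhibition of growth.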

Our source for the GI50 and TGI values is PubChem BioAssay (NCI).

Some test systems named below: HCT-15 colon; HCC-2998 colon; SK-MEL-2 melanoma; M14 melanoma; TK-10 renal; RXF 393 renal; IGROV1 ovarian; NCI-H226 lung; UACC-257 melanoma; CCRF-CEM leukemia.
Common to all, as to experiment: DTP human tumour cell line panel, 48 h

Regarding `CC(C)(CCN=C(N)Nc1ccccn1)c1ccc(C(F)(F)F)cc1`, the GI50 with HCT-15 colon is 14400 nM; with HCC-2998 colon, 15.1 µM; with SK-MEL-2 melanoma, 16.9 µM; in the test with M14 melanoma, 14000 nM; in the test on TK-10 renal, 15.5 µM; in the test with RXF 393 renal it was 14600 nM. Further, the GI50 with IGROV1 ovarian was 12000 nM; in the test on NCI-H226 lung, 13600 nM; in the test with UACC-257 melanoma, 18000 nM; in the test on CCRF-CEM leukemia it was 17700 nM. Also, the concentration for total growth inhibition (TGI) amounted to 29.2 µM with HCT-15 colon; 29.6 µM in the test on HCC-2998 colon; 32.9 µM in the test with SK-MEL-2 melanoma; 29.6 µM in the test on M14 melanoma; 29.5 µM with TK-10 renal; 29.6 µM with RXF 393 renal. In addition, the total growth inhibition concentration (TGI) in the test on IGROV1 ovarian came out at 26.2 µM; in the test with NCI-H226 lung it was 31.7 µM; with UACC-257 melanoma it was 32.8 µM; in the test with CCRF-CEM leukemia it was 58.4 µM.

Take `N#CC1(Nc2ccc(-c3ccc(NC4(C#N)CCCC4)cc3)cc2)CCCC1`: the TGI with HCT-15 colon, in the test on HCC-2998 colon, in the test with SK-MEL-2 melanoma, in the test with M14 melanoma, with TK-10 renal and in the test with RXF 393 renal was greater than 100 µM throughout. Besides, the total growth inhibition concentration (TGI) in the test with IGROV1 ovarian is greater than 100 µM; in the test on NCI-H226 lung, greater than 100 µM; with UACC-257 melanoma, greater than 100 µM; in the test on CCRF-CEM leukemia, 61.2 µM.

For the compound `CSc1ccc2c(c1)N(CCC1CCCCN1C)c1ccccc1S2` (centres undefined), the GI50 in the test with HCT-15 colon was 5110 nM and 4010 nM; in the test on HCC-2998 colon it was 3.12 µM and 4.54 µM; in the test on SK-MEL-2 melanoma, 10.7 µM; in the test on M14 melanoma, 2170 nM and 1850 nM; in the test on TK-10 renal, 13.8 µM and 4.11 µM; in the test on RXF 393 renal, 3200 nM and 1560 nM. Moreover, the GI50 is 5890 nM in the test on IGROV1 ovarian; 11200 nM and 11400 nM with NCI-H226 lung; 3080 nM and 2140 nM with UACC-257 melanoma; 5450 nM and 2260 nM in the test with CCRF-CEM leukemia. In addition, the TGI is 17.5 µM and 14.6 µM in the test with HCT-15 colon; 11.5 µM and 14.1 µM with HCC-2998 colon; 25.8 µM in the test on SK-MEL-2 melanoma; 4.89 µM and 3.76 µM with M14 melanoma; 28.5 µM and 13.4 µM in the test with TK-10 renal; 15.4 µM and 5.23 µM in the test on RXF 393 renal. Also, the TGI is 20.1 µM in the test on IGROV1 ovarian; 28.5 µM and 30.3 µM in the test with NCI-H226 lung; 11.6 µM and 6.3 µM in the test on UACC-257 melanoma; 21.1 µM and 27.4 µM in the test on CCRF-CEM leukemia.

As to `CSc1ccc(OCC2OC2O)cc1` (centres undefined), the concentration for total growth inhibition (TGI) is greater than 54.2 µM in the test with HCT-15 colon; greater than 100 µM in the test with HCC-2998 colon; greater than 100 µM in the test with SK-MEL-2 melanoma; greater than 100 µM in the test on M14 melanoma; greater than 100 µM in the test with TK-10 renal; greater than 100 µM with RXF 393 renal. The TGI in the test on IGROV1 ovarian, with NCI-H226 lung, in the test on UACC-257 melanoma and in the test on CCRF-CEM leukemia was greater than 100 µM throughout.

As for `Cc1[nH]c(C(=O)Nc2ccccc2OC2CCNCC2)c(Cl)c1Cl`, the GI50 in the test on HCT-15 colon is 912 nM; in the test with HCC-2998 colon it was 1.27 µM; in the test with SK-MEL-2 melanoma, 0.932 µM; in the test on M14 melanoma, 950 nM; in the test on TK-10 renal, 0.841 µM; in the test on RXF 393 renal, 816 nM. Further, the GI50 is 856 nM in the test on IGROV1 ovarian, 966 nM with NCI-H226 lung, 1040 nM with UACC-257 melanoma and 1370 nM with CCRF-CEM leukemia. Further, the TGI was 1.88 µM with HCT-15 colon; 3.48 µM in the test on HCC-2998 colon; 1.91 µM in the test with SK-MEL-2 melanoma; 1.9 µM with M14 melanoma; 1.62 µM in the test on TK-10 renal; 1.56 µM with RXF 393 renal. Besides, the TGI came out at 1.73 µM in the test on IGROV1 ovarian, 1.96 µM in the test with NCI-H226 lung, 2.12 µM in the test with UACC-257 melanoma and 3.89 µM in the test with CCRF-CEM leukemia.

`C=C1CCC2C3(C)COC(c4c(OC)cccc4OC)OC3CCC2(C)C1C/C=C1/C(=O)OCC1O` (centres undefined): the GI50 in the test on HCT-15 colon is 2280 nM; in the test on HCC-2998 colon it was 4.18 µM; in the test with SK-MEL-2 melanoma, 7.18 µM; in the test with M14 melanoma, 2960 nM; with TK-10 renal it was 4.03 µM; in the test with RXF 393 renal, 1920 nM. Further, the GI50 in the test with IGROV1 ovarian is 1890 nM; with NCI-H226 lung, 2420 nM; in the test with UACC-257 melanoma, 13500 nM; in the test with CCRF-CEM leukemia it was 1860 nM. In addition, the TGI with HCT-15 colon turned out to be 7.87 µM; in the test on HCC-2998 colon, 11.2 µM; with SK-MEL-2 melanoma, 21.9 µM; with M14 melanoma, 9.01 µM; in the test on TK-10 renal, 12.5 µM; in the test with RXF 393 renal, 3.55 µM. In addition, the TGI in the test on IGROV1 ovarian turned out to be 4 µM; in the test on NCI-H226 lung, 5.81 µM; with UACC-257 melanoma, 31 µM; with CCRF-CEM leukemia it was 5.75 µM.

Regarding `COC1=C(Br)C(O)C2(C=C1Br)CC(C(=O)NCCCCNC(=O)C1=NOC3(C=C(Br)C(OC)=C(Br)C3O)C1)=NO2` (centres undefined), the concentration for total growth inhibition (TGI) in the test on HCT-15 colon was greater than 100 µM; in the test with HCC-2998 colon, greater than 100 µM; in the test with SK-MEL-2 melanoma it was 52.8 µM; in the test on M14 melanoma it was 37 µM; with TK-10 renal, greater than 100 µM; in the test on RXF 393 renal, 69.6 µM. Moreover, the TGI was determined as 46.8 µM with IGROV1 ovarian, 41.2 µM with NCI-H226 lung, 52.8 µM with UACC-257 melanoma and 40.3 µM in the test on CCRF-CEM leukemia.

Consider `Cc1cc2nc3ccc(=[N+](C)C)cc-3sc2cc1N`, for which the concentration for 50% growth inhibition (GI50) in the test with HCT-15 colon was 384 nM and 630 nM; in the test on HCC-2998 colon, 1.2 µM and 2.12 µM; in the test with SK-MEL-2 melanoma, 1.31 µM and 2.26 µM; with M14 melanoma, 368 nM and 703 nM; with TK-10 renal, 2.65 µM and 2.75 µM; in the test with RXF 393 renal, 1700 nM and 1940 nM. The GI50 in the test on IGROV1 ovarian was 1530 nM and 1810 nM; with NCI-H226 lung it was 2110 nM and 1820 nM; in the test with UACC-257 melanoma, 501 nM and 1950 nM; in the test on CCRF-CEM leukemia, 279 nM and 310 nM. In addition, the TGI with HCT-15 colon is 10.9 µM and 18.6 µM and 6.98 µM; in the test on HCC-2998 colon, 7.36 µM and 12.2 µM and 10.9 µM; with SK-MEL-2 melanoma, 5.62 µM and 17 µM and 8.27 µM; with M14 melanoma it was 1.38 µM and 9.09 µM and 2.28 µM; in the test with TK-10 renal, 7.01 µM and 36.8 µM and 8.19 µM; in the test on RXF 393 renal, 6.93 µM and 22.2 µM and 8.17 µM. Besides, the concentration for total growth inhibition (TGI) in the test on IGROV1 ovarian was 5.18 µM and 20.2 µM and 5.32 µM; with NCI-H226 lung, 9.05 µM and 30.9 µM and 7.69 µM; in the test with UACC-257 melanoma, 3.78 µM and 5.85 µM and 10.1 µM.

In the case of `NC(=S)N/N=C/c1ccc(N)cn1`, the TGI is greater than 10 µM in the test on HCT-15 colon; greater than 10 µM with HCC-2998 colon; greater than 10 µM with SK-MEL-2 melanoma; greater than 7.38 µM in the test with M14 melanoma; greater than 10 µM with TK-10 renal; greater than 10 µM in the test with RXF 393 renal. Besides, the total growth inhibition concentration (TGI) in the test with IGROV1 ovarian, in the test on NCI-H226 lung, with UACC-257 melanoma and with CCRF-CEM leukemia was greater than 10 µM throughout.
